From patent US20120315248A1 (priority 2009, published 2012)

Key:
[1] = test system: MxA, ISG-15, OAS-1, and ISG-56 mRNA; type: cell-based, human
human fibroblasts = type: cell-based

Molecule	basal ISG mRNA levels in SW-R [1]	protection of fibroblasts from VSV (human fibroblasts)
CCCC(CCC)C(=O)O [VPA, valproic acid]	reduced basal mRNA levels for three out of four ISGs	
IFN-α		completely protect
